The target of this experiment is sigma receptor. As to the kind of experiment: Sigma receptor binding, [^3 H]DTG, brain membranes (both sigma-1 and sigma-2 sites). Conditions: for IC50: Table 6; for change in sigma affinity, words: Example 6. Also on record: species or system guinea pig. As to the method: Sigma receptor binding assays using guinea pig brain membrane homogenates and the radioligand [^3 H]DTG were conducted as described by Weber et al.. […] Briefly, frozen whole guinea-pig brains (Biotrol, Indianapolis, Ind.) were homogenized in 10 volumes (w/v) of ice-cold 320 mM sucrose using a Brinkman polytron. The homogenate was centrifuged at 1,000× g for 20 minutes at 4° C. The supernatant was centrifuged at 20,000× g for 20 minutes at 4° C. The resulting pellet was resuspended in 10 initial volumes of 50 mM Tris/HCl buffer at pH 7.4 and centrifuged at 20,000× g for 20 minutes at 4° C. The resulting pellet was resuspended in 5 initial volumes ice-cold 50 mM Tris/Hcl […], and the final volume was adjusted to yield a protein concentration of 3 mg/ml. Aliquots of 20-ml were stored at -70° C. until used, with no detectable loss of binding.
The protein concentration in the 1-ml final incubation volume was 800 ug/ml, corresponding to 32 mg of brain tissue (original wet weight) and to a tissue concentration within the linear range for specific binding. […] Incubations were terminated after 90 minutes at room temperature by addition of 4 ml of ice-cold 50 mM Tris/HCl (pH 7.4) and rapid filtration of the membrane suspension through Whatman GF/B glass-fiber filters under vacuum, using a 48-well cell harvester (Brandel). The filters were washed 2 times with 4 ml of 50 mM Tris/HCl (pH 7.4). Each filter was suspended in 10 ml Cytoscint (ICI), and radioactivity was measured by liquid scintillation spectrometry at a counting efficiency of approximately 50%. IC50 values were determined by non-linear regression analyis.
Further sigma receptor binding assays against [^3 H]DTG and 5HT-1A binding assays were conducted according to the procedure outlined in the previous examples.
Radioligand Binding. […] Briefly, membranes (P2 microsomal fraction) were diluted 1:3 with 50 mM Tris HCl (pH 7.4) and 0.4 mL was combined with 50 μL [^3 H]DTG (1-2 nM final concentration) and 50 μL of competing drug or buffer. After 90 min at room temperature, incubation was terminated by rapid filtration under vacuum through Whatman GF/B glass fiber filters using a Brandel 48-well cell harvester. Filters were washed three times with 5 mL of cold Tris HCl buffer and each filter was suspended in 5 mL of Cytoscint (ICN Biomedical). Radioactivity was measured by liquid scintillation spectrometry at a counting efficiency of 50%.

[1] abbreviates: running text, Examples 5 and 6, read-out: sigma receptor Ki.
Where [2] appears, read: Table 7, Phenyl-(CH2)x -NH--(CH2)y -Phenyl, read-out: Ki.

Structures can show the parent of a compound that is named as a salt. Where two headings read alike, the source gives them in different places.

`O=C1c2ccccc2C(=O)N1CCCCN1CCN(Cc2ccccc2)CC1` [Compound 119]: the IC50 ([^3 H]DTG) worked out at 21.4 nM.

Take `O=C(CCCCN1CCC(c2ccc(Cl)cc2)CC1)c1ccc(Cl)c(Cl)c1` [Compound 184]: for the setting “[^3 H]DTG”, the half-maximal inhibitory concentration (IC50) came out at 1.98 nM.

Under “[^3 H]DTG”, `CCCN(CCCc1ccccc1)[C@@H](C)Cc1ccccc1` [Compound 133] returned an IC50 of 6.44 nM.

Take `CCN(CC)CCOC(=O)C1c2ccccc2-c2ccccc21` [Compound 188]: the IC50 ([^3 H]DTG) came out at 174 nM.

On to `CN1CCC(O)(c2ccc(Cl)cc2)CC1` [Compound 156], for which the IC50 ([^3 H]DTG) was determined as 131 nM.

Take `CN(CCCCCC1CCCCC1)CC1CCCCC1.Cl` [Compound 152, N-Methyl-N-cyclohexylmethyl-5-cyclohexylpentylamine Hydrochloride]: the “change in sigma affinity, words” value is recorded as “doubles affinity”. This compound also gave an IC50 ([^3 H]DTG) of 1.76 nM.

In the case of `CCN(CC)CCOC(=O)C(c1ccccc1)c1ccccc1` [Compound 187], the half-inhibitory concentration (IC50) ([^3 H]DTG) was determined as 50.6 nM.

Compound `OC1(c2ccccc2)CCNC1` (stereo not drawn) [Compound 157] showed an IC50 ([^3 H]DTG) of 6110 nM.

Consider `CCCCCCN(C)CCc1ccccc1` [Compound 130, N-Methyl-N-hexyl-2-phenylethylamine Hydrogen Oxalate], for which, where the note is “[^3 H]DTG”, the IC50 was determined as 4.23 nM. In addition, the Ki under setting [1] turned out to be 3.8 nM.

With `CCCN(C)CCCCCc1ccccc1` [Compound 122], the Ki under setting [1] was found to be 2.4 nM.

Turning to `CCCCCCN(C)CCC` [Compound 131, N-Methyl-N-propylhexylamine Hydrogen Oxalate], where the note is “[^3 H]DTG”, the IC50 amounted to 46.9 nM. For the same compound, the Ki under setting [1] was determined as 45 nM.

`O=C(CCCN1CCCCC1)c1ccc(F)cc1` [Compound 175] showed a concentration for half-maximal inhibition (IC50) ([^3 H]DTG) of 42.9 nM.

For `COc1ccc(C(=O)CCCCN2CCCCC2)cc1` [Compound 161], the IC50 ([^3 H]DTG) is 10.9 nM.

In turn, `O=C(c1ccccc1)N1CCNCC1` [Compound 54] registered an IC50 ([^3 H]DTG) of 11800 nM.

Regarding `c1cnc(N2CCNCC2)nc1` [Compound 107], for the setting “[^3 H]DTG”, the IC50 was 10000 nM.

The compound `O=C(CCCCN1CCC(c2ccc(F)cc2)CC1)c1ccc(Cl)cc1` [Compound 181] yielded an IC50 ([^3 H]DTG) of 1.08 nM.

In turn, `C1CCC(CCCCCN2CCCCC2)CC1` [Compound 150] registered an IC50 ([^3 H]DTG) of 0.96 nM.

On to `O=C(CCCCN1CCC(c2ccccc2)CC1)c1ccc(F)cc1` [Compound 178], for which the IC50 ([^3 H]DTG) amounted to 0.896 nM.

The compound `COc1ccccc1CCNCCCCCc1ccccc1` [Compound 144] returned an IC50 ([^3 H]DTG) of 4.39 nM.

As for `OC1(c2ccccc2)CC2CCC(C1)N2CCCCCc1ccccc1` (stereo not drawn) [Compound 153], where the note is “[^3 H]DTG”, the IC50 amounted to 2.21 nM.

For `c1ccc(CCCCCCNCCCc2ccccc2)cc1` [x=3, y=6], under setting [2], the Ki is 2.6 nM.

Consider `c1ccc(CNCc2ccccc2)cc1` [x=1, y=1], for which the Ki under setting [2] was 175 nM.

For the setting “[^3 H]DTG”, `CN1C2CCC1CC(O)(c1ccccc1)C2` (stereo not drawn) [Compound 154] gave an IC50 of 3960 nM.

For `O=C(CCCCN1CCCCC1)c1ccc(F)cc1` [Compound 177], the IC50 ([^3 H]DTG) came out at 7.37 nM.

`CN(CCCCCc1ccccc1)CCCc1ccccc1` [Compound 136]: the “change in sigma affinity, words” value is reported as “doubles affinity”. For the same compound, under “[^3 H]DTG”, the concentration for half-maximal inhibition (IC50) stood at 1.78 nM.

`c1ccc(CN2CCCCC2)cc1` [Compound 147] gave an IC50 ([^3 H]DTG) of 117 nM.

Turning to `c1ccc(CNCc2ccccc2)cc1` [Compound 109], the IC50 ([^3 H]DTG) is 184 nM.

Consider N-(3-phenylpropyl)isopropylamine, for which, under setting [1], the Ki was 22 nM.

Regarding `c1ccc(CCCCCN2CC3CCC(CC3)C2)cc1` [Compound 190], the IC50 ([^3 H]DTG) was 1.07 nM.

The compound `O=C(CCCCN1CCC(c2ccccc2)CC1)c1ccc(Cl)cc1` [Compound 160] yielded an IC50 ([^3 H]DTG) of 0.62 nM.

Regarding `COc1cccc(C(=O)CCCCN2CCC(c3ccccc3)CC2)c1` [Compound 174], the IC50 ([^3 H]DTG) came to 1.1 nM.

For `c1ccc(CCCNCCc2ccc3ccccc3c2)cc1` [Compound 88], under “[^3 H]DTG”, the IC50 amounted to 53.4 nM.

`COc1ccc(CCCCCN2CCCCC2)cc1` [Compound 164]: the IC50 ([^3 H]DTG) was determined as 5.19 nM.

With `c1ccc(CCCCCN2CCN(CCCCCc3ccccc3)CC2)cc1` [Compound 138], where the note is “[^3 H]DTG”, the IC50 amounted to 2.67 nM.

`O=C(CCCCN1CC=C(c2ccc(Cl)cc2)CC1)c1ccc(Cl)cc1` [Compound 182] displayed an IC50 ([^3 H]DTG) of 4.68 nM.

For the setting “[^3 H]DTG”, `C(CCNCC1CCCCC1)CCC1CCCCC1` [Compound 151, H-Cyclohexylmethyl-5-cyclohexylpentylamine Hydrochloride] had an IC50 of 1.39 nM.

Consider `CCCNC1CCc2ccccc2C1` (stereo not drawn) [Compound 63], for which, where the note is “[^3 H]DTG”, the IC50 was 763 nM.

For the setting “[^3 H]DTG”, `CN1CCC(O)(c2ccccc2)CC1` [Compound 155] had an IC50 of 1870 nM.

In turn, `CC(C)(C)C1(O)CCN(CCc2ccccc2)CC1` [Compound 149] showed an IC50 ([^3 H]DTG) of 21.5 nM.

The compound `O=C(CCCCN1CCCCC1)C1CCCC1` [Compound 189] displayed an IC50 ([^3 H]DTG) of 13.5 nM.

Compound `COc1cccc(C(=O)CCCCN2CCCCC2)c1` [Compound 169] came in with a concentration for half-maximal inhibition (IC50) ([^3 H]DTG) of 22.8 nM.

For the setting “[^3 H]DTG”, `Oc1ccccc1CCNCCCCCc1ccccc1` [Compound 173] displayed an IC50 of 17.2 nM.

In the case of `C(/C=C/c1ccc2c(c1)OCO2)=C\CN1CCCCC1` [Compound 191], for the setting “[^3 H]DTG”, the IC50 was found to be 8.14 nM.

For the setting “[^3 H]DTG”, `CCC[C@@H](Cc1ccccc1)N(C)CCCc1ccccc1` [Compound 116] returned a half-maximal inhibitory concentration (IC50) of 10.1 nM.

Under “[^3 H]DTG”, `OC1(c2ccccc2)CCN(CCc2ccccc2)CC1` [Compound 148] showed an IC50 of 6.43 nM.

`CCCc1ccc(CC(C)N(C)CCCc2ccccc2)cc1` (stereo not drawn): the “affinity for the sigma receptor, words” value (Example 5) was “highest and most selective affinity for the sigma receptor”.

With `O=C(CCCCN1CCCCC1)c1cccc(Cl)c1` [Compound 170], the IC50 ([^3 H]DTG) worked out at 4.18 nM.

With `O=C(CCCCN1CCC(c2ccccc2)CC1)c1ccccc1` [Compound 166], for the setting “[^3 H]DTG”, the IC50 stood at 1.03 nM.

The compound `O=C(CCCCN1CCC(c2ccc(Cl)cc2)CC1)c1ccc(Cl)cc1` [Compound 183] registered an IC50 ([^3 H]DTG) of 1.97 nM.

In turn, `Clc1ccc(CCCCCN2CCC(c3ccccc3)CC2)cc1` [Compound 167] yielded an IC50 ([^3 H]DTG) of 1.96 nM.

For the compound `CN(CCc1ccccc1)CCc1ccccc1` [Compound 108], the IC50 ([^3 H]DTG) amounted to 37.9 nM.

With `c1ccc(CCCCNCCCc2ccccc2)cc1` [x=3, y=4], the Ki under setting [2] is 7 nM.

`c1ccc(C2CCNCC2)cc1` [Compound 58] yielded an IC50 ([^3 H]DTG) of 2050 nM.

Consider `O=C(O)C(=O)O.c1ccc(CCCCCNc2ccccc2)cc1` [Compound 135, N-Phenyl-5-phenyl pentyl amine Hydrogen Oxal ate], for which, where the note is “Examples 5 and 6, [^3 H]DTG”, the “change in sigma receptor affinity vs. analog” value is 6 fold. The compound further had an IC50 ([^3 H]DTG) of 13.5 nM. Further, the Ki under setting [1] stood at 12 nM.

Take `COc1cccc(CCNCCCCCc2ccccc2)c1` [Compound 145]: the IC50 ([^3 H]DTG) turned out to be 1.63 nM.

`CN1CCC(OC(c2ccccc2)c2ccccc2)CC1` [Compound 186] returned an IC50 ([^3 H]DTG) of 656 nM.

As for `COc1ccc(C(=O)CCCCN2CCC(c3ccccc3)CC2)cc1` [Compound 162], the IC50 ([^3 H]DTG) came to 0.9 nM.

In the case of `c1ccc(CCCCNCCCCc2ccccc2)cc1` [x=4, y=4], the Ki under setting [2] worked out at 6.7 nM.

Turning to `O=C(CCCCN1CCCCC1)c1ccc(Cl)cc1` [Compound 159], the 50% inhibitory concentration (IC50) ([^3 H]DTG) was found to be 1.3 nM.

Where the note is “[^3 H]DTG”, `COc1ccc(CCCCCN2CCC(c3ccccc3)CC2)cc1` [Compound 165] gave a half-inhibitory concentration (IC50) of 1.27 nM.

In the case of `O=C(CCCCN1CCC(O)(c2ccc(Cl)cc2)CC1)c1ccc(F)cc1` [Compound 179], the IC50 ([^3 H]DTG) was 2.82 nM.

For the compound `O=C(CCCCN1CC=C(c2ccc(F)cc2)CC1)c1ccc(Cl)cc1` [Compound 180], the IC50 ([^3 H]DTG) was determined as 2.24 nM.

On to `COc1ccc(CCNCCCCCc2ccccc2)cc1` [Compound 146], for which the half-inhibitory concentration (IC50) ([^3 H]DTG) came out at 2.38 nM.

Compound `CN1CCc2ccccc2C(c2ccccc2)C1` (stereo not drawn) [Compound 102] returned an IC50 ([^3 H]DTG) of 6690 nM.

Under “[^3 H]DTG”, `Oc1cccc(CCNCCCCCc2ccccc2)c1` [Compound 172, N-[2-(3-hydroxyphenyl)ethyl]-5-phenylpentylamine Hydrobromide] yielded an IC50 of 7.46 nM.

`COc1ccccc1C1(O)CCNCC1` [Compound 61] registered an IC50 ([^3 H]DTG) of 14800 nM.

Regarding `O=C(CCCCN1CCC(c2ccccc2)CC1)c1cccc(Cl)c1` [Compound 171], the IC50 ([^3 H]DTG) was 1.19 nM.

Compound `CCCC(Cc1ccccc1)NCCCc1ccccc1` (stereo not drawn) [Compound 100] had a half-inhibitory concentration (IC50) ([^3 H]DTG) of 25.6 nM.

In the case of `O=C1c2ccccc2C(=O)N1CCN1CCN(c2ccccc2)CC1` [Compound 95], under “[^3 H]DTG”, the half-maximal inhibitory concentration (IC50) was determined as 17000 nM.
